From patent US20250340529A1, “Heterocyclic Compounds as Immunomodulators of PD-L1 Interactions” (Ascletis BioScience Co., Ltd, priority 2021, published 2025) come the findings set out here.

Assay [1] deals with Hep3B-OS8-hPDL1 / Jurkat-NFAT-PD1 cells. The assay is described as follows: PDL1 Jurkat-NFAT reporter assay. In kind it is cell-based. Conditions: Homo sapiens; 6 hours, luciferase. The protocol:
PDL1 Jurkat-NFAT Reporter Assay
a. Preparation of Hep3B-OS8-hPDL1 • 1. Hep3B-OS8-hPDL1 cells were cultured in 1640 medium supplemented with 10% fetal bovine serum, 1% penicillin and streptomycin, in which 100 μg/mL G418 and Hygromycin B were also added. • 2. Cells were re-suspended with RPMI 1640 medium containing 10% FBS and the cell density was adjusted to 1.25E5 cells/mL. • 3. Cells were seeded into 96-well flat bottom plate (1.25E4 cells/100 μL/well). b. Compounds Solutions Preparation • 4. Remove the medium from pre-plated Hep3B-OS8-PDL1 cells. Wash once with 200 μL Assay Medium. • 5. Prepare the Compounds dilutions in RPMI 1640 medium with 10% FBS according to the Layout. • 6. Add compounds into each well in a volume of 50 μL in 9 concentrations (3, 1, 0.3, 0.1, 0.03, 0.01, 0.003, 0.001 and 0.0003 μM)}. Keytruda will be included as positive control at the concentration of 5 μg/mL. • 7. Incubate for 20-30 min at 37° C., 5% CO2. c. Preparation of Jurkat-NFAT-PD1 • 8. Jurkat-NFAT-PD1 cells were cultured in 1640 medium supplemented with 10% fetal bovine serum, 1% penicillin and streptomycin, in which 1000 μg/mL Hygromycin B and 0.3 μg/mL puromycin were also added. • 9. On the second day of assay, the cells were re-suspended with RPMI 1640 medium containing 10% FBS and the cell density was adjusted to 2.5E5 cells/mL. • 10. […]
On the technique in general: Reporter assays use an easily measured gene product as a stand-in for the process of interest.

For assay [2], the target named is PD-1/PD-L1 (Homo sapiens (Human), UniProt Q9NZQ7). The assay is described as follows: PD-1/PD-L1 Homogeneous Time-Resolved Fluorescence (HTRF) binding assay. Conditions: 3 nM PD1, 10 nM PD-L1, 25° C., PBS pH 7.4. The essentials:
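HTRF with His-tagged human PD-L1 (19-238, 10 nM) and Fc-tagged human PD-1 (25-167, 3 nM) preincubated with inhibitors 40 min in PBS pH 7.4, 0.05% Tween-20, 0.1% BSA, 1% DMSO, 25° C. Eu anti-human IgG and anti-His-APC added, 60 min; 665/620 nm ratio; IC50 from percent control activity fit.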

Assay [3] addresses PD-L1/CHO-K1 cells (Homo sapiens (Human), UniProt Q9NZQ7). Nature of the assay: PD-L1 internalization (FACS, PD-L1/CHO-K1 cells). The settings on record: % activation of PD-L1 internalization = 1 − PD-L1 signal; 17 hours incubation. In kind it is cell-based. In a few lines: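 PD-L1/CHO-K1 cells treated 17 h at 37 °C with compound (0.2% DMSO final), then surface PD-L1 stained with PE anti-CD274 and read by flow cytometry. Signal normalized to vehicle (100%) and unstained control (0%); internalization = 1 − normalized PD-L1 signal.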

Chain of PD-1/PD-L1 (Q9NZQ7 19-238): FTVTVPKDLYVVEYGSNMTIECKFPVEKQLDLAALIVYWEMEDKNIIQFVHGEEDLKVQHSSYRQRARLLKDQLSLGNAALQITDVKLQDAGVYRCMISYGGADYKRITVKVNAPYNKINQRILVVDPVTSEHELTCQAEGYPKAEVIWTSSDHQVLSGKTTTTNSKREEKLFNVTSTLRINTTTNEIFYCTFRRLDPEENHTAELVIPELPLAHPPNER
Chain of PD-L1/CHO-K1 cells (Q9NZQ7 19-290): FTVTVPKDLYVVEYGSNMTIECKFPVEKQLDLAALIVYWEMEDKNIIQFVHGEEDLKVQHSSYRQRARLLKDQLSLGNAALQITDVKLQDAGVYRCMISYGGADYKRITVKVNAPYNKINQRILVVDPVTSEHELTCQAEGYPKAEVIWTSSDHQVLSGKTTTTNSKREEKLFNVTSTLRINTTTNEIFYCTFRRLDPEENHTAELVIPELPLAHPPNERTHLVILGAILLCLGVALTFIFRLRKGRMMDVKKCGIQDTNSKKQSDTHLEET

Take `O=C(O)[C@H](CO)NCCN1C(=O)COc2cc(-c3cccc(-c4cccc(-c5ccc6c(c5)OCC(=O)N6CCN[C@@H](CO)C(=O)O)c4Cl)c3Cl)ccc21` [Compound 465]: in assay [1], the concentration for a half-maximal effect (EC50) was found to be 0.3 nM. In addition, in assay [2], the IC50 stood at 3.58 nM. This compound gave an Internalization in assay [3] of 67.00%.

Regarding `O=C1COc2cc(-c3cccc(-c4cccc(-c5ccc6c(c5)OCC(=O)N6C[C@H]5CCCN5)c4Cl)c3Cl)ccc2N1C[C@H]1CCCN1` [Compound 529], it took 111 nM to reach a half-maximal effect in assay [1] (EC50). Besides, the IC50 in assay [2] is 8.62 nM. Besides, the Internalization in assay [3] stood at 98.10%.

Broadly, the EC50 is the concentration needed to bring the measured effect to its halfway point. Read a low EC50 as an effect from little substance. Broadly, the IC50 is the concentration needed to halve the response being measured. A lower IC50 goes with greater potency.
